Reference: patent publication US20240246908A1 (ORION CORPORATION, priority 2021, published 2024)

Tested on: YAP-TEAD
Assay: TEAD inhibition, Hippo Pathway TEAD Reporter MCF-7 luciferase assay
Format: cell-based
Conditions: Homo sapiens, MCF7, 24 h, Hippo Pathway TEAD Reporter MCF-7 cells, luciferase activity after 24 h; read-out: IC50 of the test compounds on YAP-TEAD inhibition (Group)
Description: TEAD inhibition was assayed using Hippo Pathway TEAD Reporter—MCF-7 cell line (BPS Bioscience, Catalog #: 60618) which contains firefly luciferase gene under the control of TEAD responsive elements. In the cell line, YAP1 remains in the nucleus inducing constitutive expression of luciferase reporter. Amount of expressed luciferase was detected using ONE-Glo Luciferase Assay System (Promega) and measuring plates with Enspire Multimode Plate Reader (PerkinElmer).
Hippo Pathway TEAD Reporter—MCF-7 cells were plated on white/clear Poly-D-Lysine coated 384 plates (Corning #356660) at the density of 8500 cells/well. Next day test compounds (11 concentrations with 4 replicates) and DMSO control (0.1%) were added to the plate. After 24 h cells were lysed and luciferase activity was measured. The half maximal inhibitory concentration (IC50) of the test compounds on YAP-TEAD inhibition was determined.

IC50 [nM] | Structure (SMILES)
301 to 2000 | COc1ccc(COc2cccc(F)c2)cc1NC(=O)[C@H]1NC(=O)C[C@@H]1C (racemic) [Compound 6, rac-(trans)-N-(5-((3-Fluorophenoxy)methyl)-2-methoxyphenyl)-3-methyl-5-oxopyrrolidine-2-carboxamide]
301 to 2000 | COc1ccc(COc2cccc(F)c2)cc1NC(=O)[C@H]1NC(=O)C[C@H]1C (racemic) [Compound 20, rac-(cis)-N-(5-((3-Fluorophenoxy)methyl)-2-methoxyphenyl)-3-methyl-5-oxo-pyrrolidine-2-carboxamide]
50 to 300 | COc1ccc(Oc2cccc(C(F)(F)F)c2)cc1NC(=O)[C@@H]1CCC(=O)N1C(C)=O (stereo in doubt) [Compound 30, 1-Acetyl-N-(2-methoxy-5-(3-(trifluoromethyl)phenoxy)phenyl)-5-oxo-pyrrolidine-2-carboxamide]
< 50 | COc1ccc(Oc2ccc(C(F)(F)F)cc2)cc1NC(=O)[C@H]1CCC(=O)N1 (stereo in doubt) [Compound 45, N-(2-Methoxy-5-(4-(trifluoromethyl)phenoxy)phenyl)-5-oxopyrrolidine-2-carboxamide]
301 to 2000 | COc1ccc(Oc2ccc(C(F)(F)F)cc2)cc1NC(=O)[C@@H]1CCC(=O)N1 (stereo in doubt) [Compound 46, N-(2-Methoxy-5-(4-(trifluoromethyl)phenoxy)phenyl)-5-oxopyrrolidine-2-carboxamide]
50 to 300 | COc1cc(NC(=O)C2CCC(=O)N2C)cc(OC2CCC(F)(F)CC2)c1 (stereo in doubt) [Compound 275, (R)—N-(3-((4,4-Difluorocyclohexyl)oxy)-5-methoxyphenyl)-1-methyl-5-oxo-pyrrolidine-2-carboxamide]
< 50 | COc1ccc(Oc2ccc(C(F)(F)F)cc2)cc1NC(=O)C1CCC(=O)N1 (centres unmarked) [Compound 1, N-(2-Methoxy-5-(4-(trifluoromethyl)phenoxy)phenyl)-5-oxo-pyrrolidine-2-carboxamide]
301 to 2000 | COc1ccc(Oc2cccc(F)c2)cc1NC(=O)C1CCC(=O)N1C(C)=O (centres unmarked) [Compound 2, 1-Acetyl-N-(5-(3-fluorophenoxy)-2-methoxyphenyl)-5-oxopyrrolidine-2-carboxamide]
301 to 2000 | COc1ccc(COc2cccc(F)c2)cc1NC(=O)C1CCC(=O)N1C(C)=O (centres unmarked) [Compound 3, 1-Acetyl-N-(5-((3-fluorophenoxy)methyl)-2-methoxyphenyl)-5-oxopyrrolidine-2-carboxamide]
301 to 2000 | COc1cc(OC)c(NC(=O)C2CCC(=O)N2)cc1COc1cccc(F)c1 (centres unmarked) [Compound 4, N-(5-((3-Fluorophenoxy)methyl)-2,4-dimethoxyphenyl)-5-oxopyrrolidine-2-carboxamide]
301 to 2000 | COc1ccc(COc2cccc(F)c2)cc1NC(=O)C1CN(CCF)C1 [Compound 5, 1-(2-Fluoroethyl)-N-(5-((3-fluorophenoxy)methyl)-2-methoxyphenyl)azetidine-3-carboxamide]
301 to 2000 | O=C1CC(C(=O)Nc2cccc(Oc3cccc(C(F)(F)F)c3)c2)N1 (centres unmarked) [Compound 7, 4-Oxo-N-(3-(3-(trifluoromethyl)phenoxy)phenyl)azetidine-2-carboxamide]
50 to 300 | COc1ccc(Oc2cccc(C(F)(F)F)c2)cc1NC(=O)C1CC(=O)N1 (centres unmarked) [Compound 8, N-(2-Methoxy-5-(3-(trifluoromethyl)phenoxy)phenyl)-4-oxoazetidine-2-carboxamide]
301 to 2000 | COc1ccc(Oc2cccc(C(F)(F)F)c2)cc1NC(=O)CC1CCC(=O)N1 (centres unmarked) [Compound 9, N-(2-Methoxy-5-(3-(trifluoromethyl)phenoxy)phenyl)-2-(5-oxopyrrolidin-2-yl)acetamide]
50 to 300 | COc1ccc(Oc2cccc(C(F)(F)F)c2)cc1NC(=O)C1CCC(=O)N1 (centres unmarked) [Compound 10, N-(2-Methoxy-5-(3-(trifluoromethyl)phenoxy)phenyl)-5-oxopyrrolidine-2-carboxamide]
50 to 300 | COc1ccc(Oc2cccc(C(F)(F)F)c2)cc1NC(=O)C1CCC(=O)N1C (centres unmarked) [Compound 11, N-(2-Methoxy-5-(3-(trifluoromethyl)phenoxy)phenyl)-1-methyl-5-oxopyrro-lidine-2-carboxamide]
301 to 2000 | COc1ccc(Oc2cccc(C(F)(F)F)c2)cc1NC(=O)C1CCS(=O)(=O)C1 (centres unmarked) [Compound 12, N-(2-Methoxy-5-(3-(trifluoromethyl)phenoxy)phenyl)tetrahydrothiophene-3-carboxamide 1,1-dioxide]
301 to 2000 | COc1ccc(COc2cccc(F)c2)cc1NC(=O)C1CCS(=O)(=O)N1C (centres unmarked) [Compound 13, N-(5-((3-Fluorophenoxy)methyl)-2-methoxyphenyl)-2-methylisothiazolidine-3-carboxamide 1,1-dioxide]
301 to 2000 | COc1ccc(Oc2cccc(C(F)(F)F)c2)cc1NC(=O)C1(C)CCC(=O)N1 (centres unmarked) [Compound 14, N-(2-Methoxy-5-(3-(trifluoromethyl)phenoxy)phenyl)-2-methyl-5-oxopyrrolidi-ne-2-carboxamide]

IC50 [nM] | Structure (SMILES)
301 to 2000 | COc1ccc(Oc2cccc(F)c2)cc1NC(=O)C1(C)CCC(=O)N1 (centres unmarked) [Compound 15, N-(5-(3-Fluorophenoxy)-2-methoxyphenyl)-2-methyl-5-oxopyrrolidine-2-carboxamide]
301 to 2000 | O=C1CCC(C(=O)Nc2cccc(Oc3cccc(C(F)(F)F)c3)c2)N1 (centres unmarked) [Compound 16, 5-Oxo-N-(3-(3-(trifluoromethyl)phenoxy)phenyl) pyrrolidine-2-carboxamide]
50 to 300 | O=C1CCC(C(=O)Nc2cc(COc3cccc(F)c3)cc3ccoc23)N1 (centres unmarked) [Compound 17, N-(5-((3-Fluorophenoxy)methyl)benzofuran-7-yl)-5-oxopyrrolidine-2-carboxamide]
50 to 300 | COc1ccc(Oc2cccc(F)c2)cc1NC(=O)C12CCC(=O)N1CCS2 (centres unmarked) [Compound 18, N-(5-(3-Fluorophenoxy)-2-methoxyphenyl)-5-oxotetrahydropyrrolo[2,1-b]-thiazole-7a(5H)-carboxamide]
50 to 300 | COc1ccc(Oc2cccc(C(F)(F)F)c2)cc1NC(=O)C12CCC(=O)N1CCS2 (centres unmarked) [Compound 19, N-(2-Methoxy-5-(3-(trifluoromethyl)phenoxy)phenyl)-5-oxotetrahydropyrrolo[2,1-b]thiazole-7a(5H)-carboxamide]
< 50 | COc1ccc(/C=C/C2CCC(F)(F)CC2)cc1NC(=O)C1CCC(=O)N1 (centres unmarked) [Compound 21, (E)-N-(5-(2-(4,4-Difluorocyclohexyl)vinyl)-2-methoxyphenyl)-5-oxopyrroli-dine-2-carboxamide]
< 50 | COc1ccc(/C=C/C2CCC(F)(F)CC2)cc1NC(=O)C1CCC(=O)N1C (centres unmarked) [Compound 22, (E)-N-(5-(2-(4,4-Difluorocyclohexyl)vinyl)-2-methoxyphenyl)-1-methyl-5-oxo-pyrrolidine-2-carboxamide]
< 50 | COc1ccc(/C=C/C2CCC(F)(F)CC2)cc1NC(=O)[C@H]1CCC(=O)N1C [Compound 23]
50 to 300 | COc1ccc(/C=C/C2CCC(F)(F)CC2)cc1NC(=O)[C@@H]1CCC(=O)N1C [Compound 24]
50 to 300 | COc1ccc(Oc2cccc(F)c2)cc1NC(=O)[C@H]1CCC(=O)N1 [Compound 25, (R)—N-(5-(3-Fluorophenoxy)-2-methoxyphenyl)-5-oxopyrrolidine-2-carboxamide]
301 to 2000 | COc1ccc(COc2cccc(F)c2)cc1NC(=O)C1(C)CCNC1=O (centres unmarked) [Compound 26, N-(5-((3-Fluorophenoxy)methyl)-2-methoxyphenyl)-3-methyl-2-oxopyrrolidine-3-carboxamide]
50 to 300 | O=C1CCC(C(=O)Nc2cc(COc3cccc(F)c3)cc3c2OCO3)N1 (centres unmarked) [Compound 27, N-(6-((3-Fluorophenoxy)methyl)benzo[d][1,3]dioxol-4-yl)-5-oxopyrrolidine-2-carboxamide]
< 50 | CN1C(=O)CCC1C(=O)Nc1cc(Oc2cccc(C(F)(F)F)c2)cc2ccoc12 (centres unmarked) [Compound 28, 1-Methyl-5-oxo-N-(5-(3-(trifluoromethyl)phenoxy)benzofuran-7-yl)pyrrolidine-2-carboxamide]
50 to 300 | COc1ccc(Oc2cccc(C(F)(F)F)c2)cc1NC(=O)C1CCC(=O)N1C(C)=O (centres unmarked) [Compound 29, 1-Acetyl-N-(2-methoxy-5-(3-(trifluoromethyl)phenoxy)phenyl)-5-oxo-pyrrolidine-2-carboxamide]
301 to 2000 | O=C1CCC(C(=O)Nc2cc(COc3cccc(F)c3)cc3c2OCC3)N1 (centres unmarked) [Compound 31, N-(5-((3-Fluorophenoxy)methyl)-2,3-dihydrobenzofuran-7-yl)-5-oxopyrrolidine-2-carboxamide]
50 to 300 | CN1C(=O)CCC1C(=O)Nc1cc(COc2cccc(F)c2)cc2c1OCC2 (centres unmarked) [Compound 32, N-(5-((3-Fluorophenoxy)methyl)-2,3-dihydrobenzofuran-7-yl)-1-methyl-5-oxo-pyrrolidine-2-carboxamide]
< 50 | O=C1CCC(C(=O)Nc2cc(Oc3cccc(C(F)(F)F)c3)cc3c2OCO3)N1 (centres unmarked) [Compound 33, 5-Oxo-N-(6-(3-(trifluoromethyl)phenoxy)benzo[d][1,3]dioxol-4-yl)pyrrolidine-2-carboxamide]
50 to 300 | CN1C(=O)CCC1C(=O)Nc1cc(Oc2cccc(C(F)(F)F)c2)cc2c1OCO2 (centres unmarked) [Compound 34, 1-Methyl-5-oxo-N-(6-(3-(trifluoromethyl)phenoxy)benzo[d][1,3]dioxol-4-yl)-pyrrolidine-2-carboxamide]
301 to 2000 | COc1c(F)cc(COc2cccc(F)c2)cc1NC(=O)C1CCC(=O)N1C (centres unmarked) [Compound 35, N-(3-Fluoro-5-((3-fluorophenoxy)methyl)-2-methoxyphenyl)-1-methyl-5-oxo-pyrrolidine-2-carboxamide]
